Series [1] has as its system cell viability. Put plainly: MTT assay of cell viability/toxicity. Particulars: all doses used. In kind it is cell-based.
Series [2] can be described thus: Preliminary safety study, 4 weeks IP treatment in control and STZ-treated mice. In kind it is in vivo, mouse. The protocol:
FIG. 10. […] A preliminary safety profile of PHAR treatment was assessed in […] control and streptozotocin (STZ) treated mice. These mice were subjected to a daily IP dose of […] of vehicle (VEH; Tween-80:PBS, 1:13), or PHAR for 5 days a week for 4 weeks. A) weight evolution during the weeks of treatment. (B-E) serum analysis of the levels of albumin (B), total protein (C) and liver transaminases, aspartate transaminase, AST (D), and alanine transaminase, ALT (E). The ranges of normal values are highlighted with a green dashed line. The number of individuals per group is reflected in the graphs.
Preliminary safety studies have been performed in 7-week-old control and streptozotocin (STZ)-treated mice. These mice were subjected to an I.P treatment of 50 mg/kg of vehicle (Tween-80: PBS, 1:13) or PHAR for 4 weeks with 5 weekly doses. […] On the other hand, serum levels of albumin, total protein and two transaminases (AST and ALT) were analyzed.

In series [3] the test system is transcriptional activity of NRF2. Put plainly: ARE luciferase reporter assay in MCF-7 c32 ARE-LUC cells. In kind it is cell-based. Particulars: 9 μM, 16 h. The protocol: FIG. 4. […] MEFs in serum-depleted conditions were subjected to (A-C) 1 μM, 3 μM, or 10 μM of PHAR and 10 μM of SFN as a positive control for 16 h; or (D-F) 10 μM of PHAR for the indicated times. In both experiments, 0.1% DMSO was used as a vehicle. A), representative immunoblots of NRF2, HO1, KEAP1, LAMINB, and GAPDH as loading controls. B) and C), densitometric analysis of NRF2 and HO1 protein levels of the representative immunoblots depicted in (A), expressed as a ratio of NRF2/LAMINB or HO1/GAPDH. The data is depicted as means±SEM (n=3). Statistical analysis was performed with one-way ANOVA followed by the Bonferroni test to check inter-group differences. *p<0.05; ***p<0.001 vs. 0. D), representative immunoblots of NRF2, HO1, KEAP1, LAMINB, and GAPDH as loading controls. E) and F), Densitometric analysis of NRF2 and HO1 protein levels of the representative immunoblots of (D), expressed as a ratio of NRF2/LAMINB or HO1/GAPDH. The data is depicted as means±SEM (n=3). Statistical analysis was performed with one-way ANOVA followed by the Bonferroni test to check inter-group differences. *p<0.05; ***p<0.001 vs. 0. […] Luciferase activity was measured after 16 h of treatment. […] The mRNA levels of Hmox1, Nqo1, Aox1, Glc, and Gclm after 8 h of treatment were determined by means of pRT-PCR and normalized by means of average LaminB, Gapdh, and β-actin. […]
(Reporter assays use an easily measured gene product as a stand-in for the process of interest.)

The test system of series [4] is β-TrCP-NRF2 interaction. Put plainly: NRF2 levels after LY294002 (PI3K inhibition, GSK-3β activation) in Keap1−/− MEFs. In kind it is cell-based, mouse. Particulars: PHAR 10 μM 1 h, then LY294002 20 μM 15-240 min.
For series [5], the system named is STAM mice (NAFLD). Briefly: STAM fatty liver model, treatment from NASH stage (week 8) to week 10. In kind it is in vivo, mouse. From the text:
FIG. 13. PHAR slows fatty liver progression. The progressive damage of liver cells as a consequence of their metabolic alteration and chronic low-grade inflammation leads to their progression towards fibrosis and the consequent loss of liver function. The present invention makes it possible to treat patients diagnosed with fatty liver to prevent its progression towards more severe forms of liver disease such as fibrosis and cirrhosis. A) Scheme of the liver damage progression model. B) Representative spectra derived from MRI studies. At starting point (week 8; W8, NASH inflammation), mice subjected to the STAM protocol had fatty liver imitating the status of newly diagnosed patients. At this point, treatment with PHAR (50 mg/kg i.p; 5 days per week) began until week 10 (W10, fibrosis). C) standardized quantification of the amount of liver fat per mouse measured by MRI. Statistical analysis was performed using a two-way ANOVA followed by a Bonferroni test to compare the differences between treatments in control and STAM groups. **p<0.01. D) profiles of evolution of the amount of liver fat per mouse measured by MRI at week 8 (NASH) and week 10 (fibrosis). E) H&E histochemical analysis of mice treated with PHAR vs vehicle in control mice and in STAM mice together with oil red staining for determination of liver fat levels. F) levels of transcripts corresponding to the metabolism of fatty acids (Cpt1a, Scd1, Cd36 and Fasn). G) Levels of transcripts corresponding to pro-inflammatory cytokines (Tnf, Il6 and Infg) and anti-inflammatory (Il10 and Il4). For F and G, relative mRNA levels were determined by qRT-PCR and normalized by averaging Gapdh, Tbp, and β-actin. Statistical analysis was performed using a bidirectional ANOVA followed by a Bonferroni test to compare the differences between PHAR-treated mice vs vehicle-treated mice in the control and STAM models. *p<0.05; ***p<0.001.
After seeing the beneficial role of PHAR in the prevention of NASH, we analyzed its role in progression of liver damage. The progressive damage of hepatocytes is a consequence of their metabolic alteration and chronic low-grade inflammation and oxidative stress (FIG. 13A). We treated mice in the NASH stage (week 8), 5 days a week with an IP dose of 50 mg/kg PHAR until week 10. The analysis of fat accumulation was measured by MRI both at the initial point of treatment and at the end point (FIG. 13B). Vehicle-treated STAM mice underwent a progressive accumulation of lipids. […] Therefore, PHAR reduces low-grade chronic inflammation and liver fat accumulation.

[6] abbreviates: STAM mice, week 8 to week 10, liver mRNA.

Results on one molecule are retold here after patent publication US12590100B2, “Tetrahydro-spiroindoline-pyrrolopyrrole-triones inhibitors of the NRF2-β-TrCP interaction for use in the treatment of fatty liver disease” (Universidad Autonoma De Madrid, priority 2021, dated 2026).

Entries after “also recorded” stand apart in the source; their conditions may differ.

As to `O=C1[C@@H]2[C@H](Cc3c[nH]c4ccccc34)N[C@]3(C(=O)Nc4ccc(Cl)cc43)[C@@H]2C(=O)N1c1ccc2c(c1)OCCO2` [PHAR], the “toxicity (cell viability, MTT)” value in series [1] is given as “does not present toxicity at any of the doses used”. Besides, the “body weight during treatment” value in series [2] (control and STZ-treated mice, I.P 50 mg/kg, 5 weekly doses, 4 weeks) was “did not lose weight”. The “serum albumin, total protein, AST and ALT” value in series [2] (control and STZ-treated mice, I.P 50 mg/kg, 5 weekly doses, after 4 weeks) is recorded as “values within normal ranges”. Moreover, in series [2] (mice, daily IP 5 days a week for 4 weeks), the “toxicity of chronic / prolonged administration” value is recorded as “does not produce toxicity; also recorded: prolonged administration of PHAR is safe”. Further, in series [3], the “increase in luciferase activity” value is listed as approximately 4 fold. Besides, the “NRF2 levels under LY294002 after PHAR pre-treatment” value in series [4] was “prevented LY294002-induced NRF2 degradation, but furthermore favored NRF2 accumulation”. Further, in series [5] (STAM mice, week 8 to week 10, IP 50 mg/kg), the “liver fat (oil red staining)” value is on record as “protection against liver fat accumulation”. Further, the “lipid accumulation in liver by MRI” value in series [5] (STAM mice, week 8 to week 10, IP 50 mg/kg 5 days a week) was “significant protection against lipid accumulation”. Also, in series [5] (setting [6]), the “expression of Cpt1a (lipid catabolism)” value is listed as “increasing the expression of Cpt1a”, the “expression of Fasn (lipid synthesis)” value was “decrease in the expression of Fasn”, the “expression of anti-inflammatory cytokines” value was “promotes an increase in anti-inflammatory cytokines” and the “expression of pro-inflammatory cytokines” value was “attenuates the expression of pro-inflammatory cytokines”. Besides, the “liver histology (H&E)” value in series [5] (control and STAM mice, week 8 to week 10, IP 50 mg/kg) was “normal liver histology”.
